Like-named read-outs stand apart in the source and are kept apart here.
What was measured:
[1] = target: T1, HDAC6 (Homo sapiens, UniProt Q9UBN7); test: HDAC inhibitory activity, fluorescence-coupled acetylated peptide substrate assay; format: biochemical
T1 sequence (Q9UBN7 1-1215): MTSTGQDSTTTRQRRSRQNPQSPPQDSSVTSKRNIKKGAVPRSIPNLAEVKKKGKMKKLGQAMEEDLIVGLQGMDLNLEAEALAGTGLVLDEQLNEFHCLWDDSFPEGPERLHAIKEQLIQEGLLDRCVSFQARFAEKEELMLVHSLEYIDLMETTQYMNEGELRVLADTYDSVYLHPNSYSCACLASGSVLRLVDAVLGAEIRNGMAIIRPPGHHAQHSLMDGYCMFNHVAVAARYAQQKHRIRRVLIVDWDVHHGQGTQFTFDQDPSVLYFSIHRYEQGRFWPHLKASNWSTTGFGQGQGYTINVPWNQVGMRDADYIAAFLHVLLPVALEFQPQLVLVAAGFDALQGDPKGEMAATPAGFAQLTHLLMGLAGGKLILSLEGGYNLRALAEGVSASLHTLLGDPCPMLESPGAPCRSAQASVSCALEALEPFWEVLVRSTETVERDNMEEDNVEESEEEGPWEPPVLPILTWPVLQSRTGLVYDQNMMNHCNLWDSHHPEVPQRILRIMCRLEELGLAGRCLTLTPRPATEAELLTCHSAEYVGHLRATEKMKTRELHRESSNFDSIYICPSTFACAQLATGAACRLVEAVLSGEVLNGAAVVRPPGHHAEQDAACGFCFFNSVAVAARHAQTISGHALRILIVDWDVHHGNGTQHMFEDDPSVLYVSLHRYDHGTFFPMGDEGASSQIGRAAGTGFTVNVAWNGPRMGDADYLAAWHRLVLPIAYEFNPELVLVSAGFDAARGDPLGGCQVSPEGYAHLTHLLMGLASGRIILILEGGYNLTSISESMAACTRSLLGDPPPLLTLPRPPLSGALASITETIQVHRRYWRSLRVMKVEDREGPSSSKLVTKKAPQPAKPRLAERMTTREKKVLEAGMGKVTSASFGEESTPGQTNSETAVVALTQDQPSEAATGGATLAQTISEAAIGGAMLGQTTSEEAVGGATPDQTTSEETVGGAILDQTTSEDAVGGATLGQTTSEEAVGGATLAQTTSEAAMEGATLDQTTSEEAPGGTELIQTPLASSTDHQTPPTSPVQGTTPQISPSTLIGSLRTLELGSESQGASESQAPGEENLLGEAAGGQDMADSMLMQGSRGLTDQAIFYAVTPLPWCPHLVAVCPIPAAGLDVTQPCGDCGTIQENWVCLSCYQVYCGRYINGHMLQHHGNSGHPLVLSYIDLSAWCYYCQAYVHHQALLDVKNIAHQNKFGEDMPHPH
Experimental: (§2) The HDAC inhibitory activity was determined by fluorescence-coupled acetylated peptide substrate assay (Lys-Ac-AMC). HDAC1 protein was purchased from BPS Bioscience, and the reaction buffer system was a modified tris(hydroxymethyl)aminomethane buffer (pH 7.0). The small molecule compounds of the present invention were prepared by being dissolved in 100% DMSO. HDAC was prepared in a buffer at a certain concentration as an enzyme solution; trypsin and fluorescent group 4-amino-7-coumarin coupled-acetylated peptide (Ac-peptide) substrate were prepared in a buffer at a certain concentration as a substrate solution. The compounds were added into the reaction wells in a 384-well plate at a designed concentration of 10 μM, 1 μM, 0.5 μM, 0.1 μM, 0.05 μM, 0.01 μM, 0.005 μM, 0.001 μM, and 0.00005 μM, respectively, and then 15 μl of the HDAC solution was added into the reaction wells (15 μl of blank buffer to the control well). […] The results were analyzed by GraphPad Prism software and IC50 values were calculated according to the formula: Y=Background Data+(Top Data−Background Data)/(1+10^((Log IC50−X) a curve slope)), where Y: the inhibition rate (%) and X: the concentration of the compound.

[2] = system: Leukemia MV4-11; test: Cell proliferative activity (MTT / cck-8); format: cell-based; conditions: Homo sapiens, read-out: Half-Inhibitory Concentration IC50 MV4-11
In short: (§1)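 Readout: MTT for solid-tumour cells, CCK-8 for haematologic cells (e.g., Ramos). Cells from logarithmic-phase cultures were plated at 2000-3000 cells/well, and adherent ones were left to attach first.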

[3] = system: Human melanoma A375; test: Cell proliferative activity (MTT / cck-8); format: cell-based; conditions: A-375, incubated for 96 hours, read-out: Half-Inhibitory Concentration IC50 Human melanoma A375
In short: as §1

[4] = system: Human cervical cancer cell Hela; test: Cell proliferative activity (MTT / cck-8); format: cell-based
In short: as §1

[5] = system: Human lung cancer cell H460; test: Cell proliferative activity (MTT / cck-8); format: cell-based
In short: as §1

[6] = system: Leukemia K562; test: Cell proliferative activity (MTT / cck-8); format: cell-based; conditions: Homo sapiens, read-out: Half-Inhibitory Concentration IC50 K562
In short: as §1

[7] = system: B-cell lymphoma Ramos; test: Cell proliferative activity (MTT / cck-8); format: cell-based; conditions: Homo sapiens, read-out: Half-Inhibitory Concentration IC50 Ramos
In short: as §1

[8] = system: Human liver cancer cell HepG2; test: Cell proliferative activity (MTT / cck-8); format: cell-based
In short: as §1

[9] = system: Multiple myeloma U266; test: Cell proliferative activity (MTT / cck-8); format: cell-based; conditions: Homo sapiens, U-266, read-out: Half-Inhibitory Concentration IC50 U266
In short: as §1

[10] = system: Multiple myeloma RPMI8226; test: Cell proliferative activity (MTT / cck-8); format: cell-based; conditions: Homo sapiens, RPMI-8226, read-out: Half-Inhibitory Concentration IC50 RPMI8226
In short: as §1

[11] = system: Human ovarian cancer cell SKOV-3; test: Cell proliferative activity (MTT / cck-8); format: cell-based
In short: as §1

[12] = system: HCT116 cells; test: Therapeutic effect on the colon cancer HCT116 subcutaneous tumor model (intragastric); conditions: 8 times, vs solvent group
[13] = target: HDAC2 (Homo sapiens, UniProt Q92769); conditions: read-out: IC50 HDAC2
Experimental: as §2

[14] = system: HBL-1 cells; test: Therapeutic effect on the B-cell lymphoma HBL-1 subcutaneous tumor model; format: in vivo, NOD/SCID mice; conditions: HBL-1 model, 9 times, vs solvent group
[15] = system: Lung cancer A549; test: Cell proliferative activity (MTT / cck-8); format: cell-based; conditions: Homo sapiens, read-out: Half-Inhibitory Concentration IC50 A549
[16] = system: Ramos cells; test: Therapeutic effect on the B-cell lymphoma Ramos subcutaneous tumor model; format: in vivo, NOD/SCID mice; conditions: 6 times; for tumor inhibitory rate: vs solvent group
[17] = 10 mg/kg intragastrically once every other day
[18] = 20 mg/kg intragastrically once every other day
[19] = 40 mg/kg intragastrically once every other day
[20] = 80 mg/kg intragastrically once every other day

Chain of HDAC2 (Q92769 whole entry): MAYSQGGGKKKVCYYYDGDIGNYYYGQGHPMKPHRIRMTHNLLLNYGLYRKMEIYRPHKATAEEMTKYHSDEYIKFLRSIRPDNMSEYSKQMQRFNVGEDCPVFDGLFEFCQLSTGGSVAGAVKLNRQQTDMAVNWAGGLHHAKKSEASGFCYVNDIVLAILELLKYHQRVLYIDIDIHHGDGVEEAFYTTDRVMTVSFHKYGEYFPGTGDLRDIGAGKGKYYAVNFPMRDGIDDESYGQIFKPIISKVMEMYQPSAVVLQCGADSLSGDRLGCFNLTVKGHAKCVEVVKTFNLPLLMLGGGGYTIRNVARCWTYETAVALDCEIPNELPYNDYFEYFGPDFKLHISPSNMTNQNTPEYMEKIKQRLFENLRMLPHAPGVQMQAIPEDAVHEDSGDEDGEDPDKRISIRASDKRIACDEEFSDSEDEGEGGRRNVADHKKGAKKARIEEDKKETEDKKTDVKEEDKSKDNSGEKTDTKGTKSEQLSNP

With `COc1ccc(N(C)c2nc(C)nc3ccccc23)cc1OCCCC(=O)NO` [III-2, N-hydroxy-4-(2-methoxy-5-(methyl(2-methyl-4-quinazolinyl)amino)phenoxy) butanamide] the IC50 ([1]; Table 2) was 10 to 100 nM, the IC50 ([1]; Table 4, Class IIb) was 17 ± 2 nM and the IC50 [2] was 60 ± 32 nM. For the same molecule, the IC50 [3] was 10 to 100 nM, the IC50 ([4]; Cervical cancer, Table 5, read-out: Half-Inhibitory Concentration IC50 Hela) was 49 ± 20 nM and the IC50 ([4]; incubated for 96 hours, read-out: Half-Inhibitory Concentration IC50 Human cervical cancer cell Hela) was 10 to 100 nM. The IC50 ([5]; NCI-H460, Lung cancer, Table 5, read-out: Half-Inhibitory Concentration IC50 H460) was 55 ± 13 nM, the IC50 ([5]; NCI-H460, incubated for 96 hours, read-out: Half-Inhibitory Concentration IC50 Human lung cancer cell H460) was 10 to 100 nM and the IC50 [6] was 63 ± 18 nM. For the same molecule, the IC50 [7] was 71 ± 31 nM, the IC50 ([8]; Liver cancer, Table 5, read-out: Half-Inhibitory Concentration IC50 HepG2) was 41 ± 1 nM and the IC50 ([8]; incubated for 96 hours, read-out: Half-Inhibitory Concentration IC50 Human liver cancer cell HepG2) was 10 to 100 nM. For the same molecule, the IC50 [9] was 14 ± 6 nM, the IC50 [10] was 15 ± 4 nM and the IC50 ([11]; SK-OV-3, Ovarian cancer, Table 5, read-out: Half-Inhibitory Concentration IC50 SKOV-3) was 50 ± 8 nM. For the same molecule, the IC50 ([11]; SK-OV-3, incubated for 96 hours, read-out: Half-Inhibitory Concentration IC50 Human ovarian cancer cell SKOV-3) was 10 to 100 nM, the tumor inhibitory rate ([12]; 6.25 mg/kg intragastrically once every other day) was 51.28% and the tumor inhibitory rate ([12]; 12.5 mg/kg intragastrically once every other day) was 58.64%. For the same molecule, the tumor inhibitory rate ([12]; 25 mg/kg intragastrically once every other day) was 60.37%, the tumor inhibitory rate ([12]; 50 mg/kg intragastrically once every other day) was 66.05% and the IC50 [13] was 386 ± 7 nM. It also gave a tumor inhibitory rate [14, 17] of 31.70%, a tumor inhibitory rate [14, 18] of 25.23% and a tumor inhibitory rate [14, 19] of 58.22%. For the same molecule, the tumor inhibitory rate [14, 20] was 56.88%, the IC50 [15] was 104 ± 29 nM and the tumor inhibitory rate [16, 17] was “no effects on inhibiting tumor growth”. For the same molecule, the tumor inhibitory rate [16, 18] was “no effects on inhibiting tumor growth”, the tumor inhibitory rate [16, 19] was 22.54% and the “toxicity (death of mice during the experiment)” value ([16]; 80 mg/kg intragastrically once every other day, a mouse died) was “may exhibit toxicity to a few individuals”. The tumor inhibitory rate [16, 20] was 58.79%.

From patent publication US10532053B2, “Histone deacetylase inhibitor, and preparation method and use thereof” (GUANGDONG ZHONGSHENG PHARMACEUTICAL CO., LTD, priority 2015, dated 2020)
